Test results taken from publication PMC6930480, “Inhibition of Porcine Aminopeptidase M (pAMP) by the Pentapeptide Microginins” (Molecules, 2019).
Peptide text beside a SMILES is read from it.

Biological target: T1, porcine aminopeptidase M (EC 3.4.11.2) (Sus scrofa, UniProt P15145)
T1 construct: purchased Sigma Aldrich; host or cells: pig kidney (tissue-derived)
T1 sequence (P15145 1-963): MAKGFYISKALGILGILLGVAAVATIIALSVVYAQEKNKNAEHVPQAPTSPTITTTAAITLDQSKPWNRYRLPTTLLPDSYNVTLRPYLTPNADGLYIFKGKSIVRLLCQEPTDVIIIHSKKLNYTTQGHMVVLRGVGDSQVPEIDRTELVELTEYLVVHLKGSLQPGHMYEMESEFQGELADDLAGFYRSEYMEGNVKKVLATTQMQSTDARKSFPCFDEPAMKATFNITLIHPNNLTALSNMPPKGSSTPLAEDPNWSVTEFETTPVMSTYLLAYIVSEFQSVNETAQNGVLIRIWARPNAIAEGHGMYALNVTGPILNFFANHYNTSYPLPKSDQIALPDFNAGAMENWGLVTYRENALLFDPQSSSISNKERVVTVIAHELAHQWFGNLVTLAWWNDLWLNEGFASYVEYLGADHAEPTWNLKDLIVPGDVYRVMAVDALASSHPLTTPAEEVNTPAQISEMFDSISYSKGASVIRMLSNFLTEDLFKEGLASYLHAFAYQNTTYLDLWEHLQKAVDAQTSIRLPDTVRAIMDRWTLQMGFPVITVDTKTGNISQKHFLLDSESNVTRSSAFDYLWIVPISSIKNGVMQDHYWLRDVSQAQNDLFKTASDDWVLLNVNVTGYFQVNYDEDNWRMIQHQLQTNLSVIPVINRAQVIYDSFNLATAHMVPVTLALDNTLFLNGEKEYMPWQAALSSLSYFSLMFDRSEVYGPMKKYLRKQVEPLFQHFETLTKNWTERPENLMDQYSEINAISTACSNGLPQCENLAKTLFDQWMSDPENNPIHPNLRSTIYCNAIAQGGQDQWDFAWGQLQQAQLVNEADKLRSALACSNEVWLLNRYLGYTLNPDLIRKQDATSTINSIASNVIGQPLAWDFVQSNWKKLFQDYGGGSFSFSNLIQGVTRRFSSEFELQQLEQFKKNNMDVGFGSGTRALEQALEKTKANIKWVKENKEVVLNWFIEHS
Experiment: Aminopeptidase M inhibition, spectrophotometric, L-leucine-p-nitroanilide substrate
Type: biochemical
Settings: porcine AMP from pig kidney, 1 mU mL^-1; 0.1 M borate buffer pH 8.0; 30 min pre-incubation at 30 °C; inhibitor 0.1-10 μM; L-leucine-p-nitroanilide 1.2 mM; absorbance 405 nm; triplicate, average of three independent experiments
Protocol: Inhibition assay spectrophotometrically performed using porcine aminopeptidase M (EC 3.4.11.2, from pig kidney—Sigma Aldrich®). After 30 min pre-incubation at 30 °C, 5 μL of the commercial aminopeptidase M enzyme (1 mU mL^−1) added to microginin solutions (concentrations of 0.1, 0.25, 0.5, 1, 5 and 10 μM). […] The final volume at the 96-well plates was 75 μL (medium composed of 0.1 M borate buffer, Ph 8.0). After 30 min pre-incubation, 30 μL of the L-leucine-p-nitroanilide substrate at the concentration of 1.2 mM were added for the microginins AMP inhibition assays. The kinetics of inhibition of AMP were determined and the reaction interrupted with the addition of 25 μL of 30% acetic acid solution.
To obtain the factor used for the calculation of specific activity, a standard curve was performed with the product of the reaction (p-nitroanilide 1 mM), obtaining the slope of the curve. Absorbance reading was performed on the Spectra Max M2-Molecular Devices® 96-well plate reader with SoftMax Pro® software version 5.3, and the p-nitroanilide product concentrations were determined by the millimolar extinction coefficient at 405 nm as 9.96 (Sigma-Aldrich). After reading the samples, the residual activity calculations performed in mU mL^−1, percentage of activity and inhibition. […]

SMILES | IC50 [nM]
CCCCCCC[C@@H](N)[C@H](O)C(=O)N[C@H](C(=O)N[C@@H](CC(C)C)C(=O)N[C@@H](CCc1ccc(O)cc1)C(=O)N[C@@H](Cc1ccc(O)cc1)C(=O)O)C(C)C [MG756, Ahda-Val-Leu-HTy-Tyr] (HELM PEPTIDE1{[CCCCCCC[C@@H](N)[C@H](O)C(=O)[*:2]].V.L.[O=C([C@H](CCc1ccc(O)cc1)N[*:1])[*:2]].Y}$$$$V2.0) | 3260 ± 500
CCCCCCC[C@@H](NC)[C@H](O)C(=O)N[C@H](C(=O)N[C@@H](CC(C)C)C(=O)N[C@@H](CCc1ccc(O)cc1)C(=O)N[C@@H](Cc1ccc(O)cc1)C(=O)O)C(C)C [MG770, N-Me-Ahda-Val-Leu-HTy-Tyr] (HELM PEPTIDE1{[CCCCCCC[C@@H](NC)[C@H](O)C(=O)[*:2]].V.L.[O=C([C@H](CCc1ccc(O)cc1)N[*:1])[*:2]].Y}$$$$V2.0) | 1200 ± 100
